Experimental findings from patent publication US11149046B2, “Antibacterial sideromycins” (Hsiri Therapeutics, Inc., priority 2014, dated 2021) are described below.

Series [1] concerns S. Aureus ISR 14-001. Nature of the series: MIC determination. Format: cell-based. Particulars: Staphylococcus aureus; Table 2; read-out: in vitro activity (MIC).
Series [2] concerns strains of Pseudomonas and Acinetobacter. Briefly: Antibacterial activity, general statements. The following applies: general statements of the text. Format: cell-based. On the procedure: Antibiotic activity was determined using agar diffusion assays against representative Gram-negative bacteria, including Pseudomonas aeruginosa (Pa6), and several multidrug resistant forms of Acinetobacter baumannii. Representative results are shown in Table 1 and a corresponding picture of an actual petri dish showing the agar diffusion results (FIG. 4). […].

Series [3] deals with Burkholderia multivorans AU0100. Briefly: MIC determination. Format: cell-based. Particulars: Table 2, read-out: in vitro activity (MIC).
In series [4] the test system is Acinetobacter baumannii ATCC 17961. Briefly: In vivo activity against Acinetobacter baumannii in mice (FIG. 7). The following applies: 50 mg/kg IV at 30 min and 24 hr post inoculation; IP 10^8 A. baumannii ATCC 17961; female ICR mice. Here is the method: Y-axis is percent surviving; x-axis is days after inoculation. Note: 5/5 Vehicle and 5/5 daptomycin treated mice were all dead at Day 1; […] female ICR mice; IP inoculation with 10^8 Acinetobacter baumannii ATCC 17961; Treatment administered IV at 30 min and 24 hr post inoculation; Treatments—Ciprofloxacin 50 mg/kg, HT-10100 mg/kg, HT-10 50 mg/kg, HT-10 25 mg/kg, HT-10 10 mg/kg, HT-10 5 mg/kg, daptomycin 50 mg/kg, Vehicle.

In series [5] the test system is multi-drug resistant Acinetobacter. Nature of the series: Dose dependent agar diffusion (FIG. 5). Format: cell-based. The source says:
Note Daptomycin is not active (arrow),
(In general: In agar diffusion tests the substance spreads into inoculated agar from a disc or well.)

Series [6] deals with A. baumannii BAA 1797. Nature of the series: Agar diffusion assay. Format: cell-based, Acinetobacter baumannii. Particulars: Acinetobacter baumannii, BAA1797; M-HII media; 0.5 mM (ciprofloxacin 5 μg/ml), 50 uL per well, 37° C. 20 hrs; P unclear zone; read-out: Zone of Growth Inhibition. On the procedure: (§1) Antibiotic activity was determined using agar diffusion assays against representative Gram-negative bacteria, including Pseudomonas aeruginosa (Pa6), and several multidrug resistant forms of Acinetobacter baumannii. Representative results are shown in Table 1 and a corresponding picture of an actual petri dish showing the agar diffusion results (FIG. 4). […]. [table]

Series [7] relates to A. baumannii BAA 1793. Nature of the series: Agar diffusion assay. Format: cell-based, Acinetobacter baumannii. The following applies: Acinetobacter baumannii, BAA1793; M-HII media; 0.5 mM (ciprofloxacin 5 μg/ml), 50 uL per well, 37° C. 20 hrs; P unclear zone; read-out: Zone of Growth Inhibition. Here is the method:
as §1

Series [8] has as its system A. baumannii BAA 1800. Briefly: Agar diffusion assay. The class given is cell-based, Acinetobacter baumannii. Particulars: Acinetobacter baumannii, BAA1800; M-HII media; 0.5 mM (ciprofloxacin 5 μg/ml), 50 uL per well, 37° C. 20 hrs; read-out: Zone of Growth Inhibition. On the procedure:
as §1

In series [9] the test system is A. baumannii BAA 1710. Briefly: Agar diffusion assay. The class given is cell-based, Acinetobacter baumannii. Particulars: Acinetobacter baumannii, BAA1710; M-HII media; 0.5 mM (ciprofloxacin 5 μg/ml), 50 uL per well, 37° C. 20 hrs; P unclear zone; read-out: Zone of Growth Inhibition. Here is the method:
as §1

Series [10] has as its system A. baumannii ATCC 17961. Nature of the series: MIC determination. Format: cell-based, Acinetobacter baumannii. The source says: (§2) Table 3 that was included in the first Example 4 section provides antibacterial data for the first synthetic sideromycins we prepared and studied. The second Example 4 section elaborated and expanded on that data with inclusion of representative antibacterial data in the text and associated pictures of Petri dish assays. MIC (minimum inhibition concentration) is given in μM and AD (agar diffusion zones of inhibition are given in mm from Kirby-Bauer Petri dish growth inhibition studies).

For series [11], the system named is P. aeruginosa Pa6. Briefly: Agar diffusion assay. Format: cell-based, Pseudomonas aeruginosa. Particulars: Pseudomonas aeruginosa, PA6; M-HII media; 0.5 mM (ciprofloxacin 5 μg/ml), 50 uL per well, 37° C. 20 hrs; P unclear, V very unclear zone; read-out: Zone of Growth Inhibition. On the procedure: as §1
For series [12], the system named is A. baumannii ISR 14-0061. Nature of the series: MIC determination. Format: cell-based. Particulars: Acinetobacter baumannii, ISR140061; Table 2; read-out: in vitro activity (MIC).
Series [13] relates to Pseudomonas aeruginosa 01 (Pa01). Nature of the series: MIC determination. The class given is cell-based.
Source text: as §2

Series [14] concerns E. coli DC0. Nature of the series: MIC determination. Particulars: Escherichia coli, DC0, read-out: in vitro activity (MIC). The class given is cell-based.
Source text: as §2

Series [15] deals with A. baumannii ARC 3486. Nature of the series: MIC determination. The class given is cell-based. The following applies: Acinetobacter baumannii, ARC3486; Table 2; read-out: in vitro activity (MIC).
For series [16], the system named is S. Aureus ISR-002. Briefly: MIC determination. The class given is cell-based. The following applies: Staphylococcus aureus; Table 2; read-out: in vitro activity (MIC).
The subject of series [17] is Hela.
Series [18] concerns MCF7.
In series [19] the test system is Pa4. Nature of the series: MIC determination. Format: cell-based, Pseudomonas aeruginosa.
Source text: as §2

Series [20] deals with P. aeruginosa KW799/wt. Nature of the series: MIC determination. The class given is cell-based, Pseudomonas aeruginosa.
Source text: as §2

For series [21], the system named is Pa-Da-1304 CF patient isolate. Nature of the series: MIC determination. Format: cell-based, Pseudomonas aeruginosa. Particulars: clinical isolate from a cystic fibrosis patient. The source says:
(§3) MIC (minimum inhibition concentration) is given in μM and AD (agar diffusion zones of inhibition are given in mm from Kirby-Bauer Petri dish growth inhibition studies).
We obtained a clinical isolate of Pseudomonas from a cystic fibrosis patient.

The subject of series [22] is PC3.
Series [23] concerns Pa6. Nature of the series: MIC determination. Format: cell-based, Pseudomonas aeruginosa. The following applies: read-out: MIC.
Source text: as §3

Series [24] in a line: Stability assay in media. The class given is physicochemical. The text has this:
The initial antibacterial assay shown in Table 6 indicated activity against select strains of Pseudomonas and/or Acinetobacter. However, the reduction of activity at higher concentrations but excellent activity at lower, drug like concentrations, raised the concern that either the conjugates were unstable or some of the siderophore component remained in the final conjugate and at higher concentrations, the siderophore growth promotion would compete for the sideromycin growth inhibition. The possible instability was considered to be due to the presence of the short succinate linker that upon bacterial uptake and iron removal would promote intramolecular release of the antibiotic component and regeneration of the siderophore with subsequent growth promotion effects. […] Meanwhile, the assays were repeated with intentional addition (titration with) of the siderophore component itself to the sideromycins. […] Therefore, each of these mixed ligand sideromycins has been resynthesized and rigorously purified. […] MIC antibacterial assays are being repeated with the newly prepared samples. […] Thus, the mixed ligand system has the potential to be a very potent and selective anti-Acinetobacter sideromycin.

Series [25] can be described thus: Cytotoxicity assay. The following applies: human, PC3 cells.
A short description of series [26]: Cytotoxicity assay. Particulars: human, HeLa cells.
Series [27] in a line: Cytotoxicity assay. Particulars: human, MCF7 cells.

In brackets after ≈: the same amount, converted by molar mass. Read-outs that look alike come from different tables or passages of the source.

One may read the MIC as the lowest concentration that inhibits growth of the organism. One may read the zone of inhibition as the size of the clear area around the sample on an inoculated plate. Take `CCCCCCCCCC(=O)N[C@@H](Cc1c[nH]c2ccccc12)C(=O)N[C@H](CC(N)=O)C(=O)N[C@@H](CC(=O)O)C(=O)N[C@@H]1C(=O)NCC(=O)N[C@@H](CCCN)C(=O)N[C@@H](CC(=O)O)C(=O)N[C@H](C)C(=O)N[C@@H](CC(=O)O)C(=O)NCC(=O)N[C@H](CO)C(=O)N[C@@H]([C@H](C)CC(=O)O)C(=O)N[C@@H](CC(=O)c2ccccc2N)C(=O)O[C@@H]1C` [daptomycin]: the minimum inhibitory concentration (MIC) in [1] is 0.8 µM (≈ 1.3 µg/mL); in series [3] it was greater than 100 µM; in series [10] (Acinetobacter baumannii, ATCC17961, Table 2, read-out: in vitro activity (MIC)), greater than 100 µM; in series [12], greater than 100 µM; in series [13] (Pseudomonas aeruginosa, Table 2, read-out: in vitro activity (MIC)) it was greater than 100 µM; in series [14], greater than 100 µM. Also, the minimum inhibitory concentration (MIC) is greater than 200 µM in series [15] and 0.8 µM (≈ 1.3 µg/mL) in series [16]. Moreover, the “antibacterial activity (in words)” value in [2] is “completely inactive”. Also, in series [4], the “treated mice dead at Day 1” value is 5/5. The “in vitro activity (in words)” value in series [5] is listed as “not active”. In addition, the zone of inhibition at 500 µM in [6], in series [7], in series [8], in series [9] and in series [11] was 0 mm each time.
What is called IC50 is the concentration that inhibits the measured activity by half. A lower IC50 goes with inhibition by little substance. Take `O=C(CCC(=O)N(CCCCNC(=O)c1cccc(O)c1O)CCCNC(=O)c1cccc(O)c1O)NCCCCCN(O)C(=O)CCCC(=O)NC(C(=O)NC1C(=O)N2C(C(=O)O)=C(Cl)CCC12)c1ccccc1` (centres unmarked) [MG-1-227]: the concentration for half-maximal inhibition (IC50) in series [17] is greater than 20 µM; in series [18] it was 11 µM; in series [22], 15 µM. For the same compound, the minimum inhibitory concentration (MIC) in [19] was greater than 50 µM; in series [20] (read-out: MIC), 0.2 µM (≈ 0.213 µg/mL); in series [21], greater than 50 µM; in series [10] (read-out: MIC), 0.025 µM (≈ 0.0266 µg/mL); in series [23] (beta-lactamase producer strain) it was greater than 50 µM. Further, in series [24], the “stability in media (in words)” value was “showed the desired stability”.
Take `CC(=O)Oc1cccc(C(=O)NCCCCN(CCCNC(=O)c2cccc(OC(C)=O)c2OC(C)=O)C(=O)CCC(=O)NCCCCCN(OC(C)=O)C(=O)CCC(=O)N[C@@H](C(=O)N[C@@H]2C(=O)N3C2SC(C)(C)[C@@H]3C(=O)O)c2ccccc2)c1OC(C)=O` (some centres unmarked) [MG-1-121]: in [2], the “antibacterial activity (in words)” value is “broad spectrum activity”. In addition, the “MIC” value is 0.14 to 0.2 µM in [20]; 0.14 to 0.2 µM (≈ 0.176 to 0.252 µg/mL) in [20] (Pseudomonas aeruginosa, KW799/WT, Table 6, read-out: MIC); 0.05 µM (≈ 0.063 µg/mL) in [20] (listed as MG-1-239, read-out: MIC); greater than 50 µM in series [21] (Pseudomonas aeruginosa); 0.39 to 0.55 µM in series [13]; 0.39 to 0.55 µM (≈ 0.491 to 0.693 µg/mL) in [13] (Pseudomonas aeruginosa, Table 6, read-out: MIC). Moreover, the MIC is 0.2 µM (≈ 0.252 µg/mL) in series [13] (Pseudomonas aeruginosa, read-out: MIC) and greater than 50 µM in series [23] (Pseudomonas aeruginosa, Table 6). For the same compound, the IC50 in [25], in series [26] and in series [27] was greater than 20 µM throughout. Also, in series [24] (incubated in media under conditions that mimic the antibacterial assays, LC/MS), the “stability in media (in words)” value was “expected loss of acetyl groups”.
